The assay concerns wt and depression-like mouse models. The experiment in a line: Forced Swimming test (FST), acute administration. Type of assay: in vivo. The settings on record: LPS-treated mice (0.83 mg/kg LPS), 1mg/kg ip. The method, then: Three well-established mouse models of depression-like behavior have been used in the present study namely i- the long-term corticosterone treatment in the drinking water (David, Samuels et al. 2009), ii- the peripheral administration of LPS (O'Connor, Lawson et al. 2009) iii- the ApN^-/- mice (Liu, Guo et al. 2012). For chronic AdipoRon treatment, the experimental protocol was as followed: • i- Five weeks old male mice (five/cage) received corticosterone (35mg/L dissolved in tap water containing 4 g/L CD) or vehicle alone ad libitum for during 7 consecutive weeks (David, Samuels et al. 2009). Corticosterone and vehicle solutions were changed every 3 days to prevent possible degradation. […]
All behavioral testing were conducted during the light phase (between 09:00 and 14:00 am) in compliance with the Institutional Animal Care and Use Committee of the University of Nice-Sophia Antipolis (permission number 010344.01 from the French "Ministère de l'Enseignement Supérieur et de la Recherche" granted to Dr. Joëlle Chabry). • Forced Swimming test (FST) - Mice were placed an inescapable transparent tank (20cm diameter, 30cm deep) filled with water (23°C ± 0.5) for six minutes as previously described by Porsolt et al. (1977). […] To initiate testing, mice were placed into the light side and activity was recorded for 5 minutes. […]

As to `O=C(COc1ccc(C(=O)c2ccccc2)cc1)NC1CCN(Cc2ccccc2)CC1` [AdipoRon, 2-(4-Benzoylphenoxy)-N-[1-(phenylmethyl)-4-piperidinyl]-acetamide], the “immobility time in the FST” value is “significantly to reducing this parameter”.

Values taken from patent EP3431468B1, “USE OF ADIPONECTIN RECEPTOR AGONISTS IN TREATING DEPRESSION, ANXIETY AND NEUROINFLAMMATION” (CENTRE NATIONAL DE LA RECHERCHE SCIENTIFIQUE, priority 2017, dated 2019).
